Experimental data: the Kinase Knowledgebase extract (Sharma et al. 2016)
Values joined by “and” are separate entries in the source; they are usually repeats but may differ in a detail not shown here. Equal entries are not always repeated.

Target: PIK3CD (Human) (UniProt O00329)
Test: Assessment of PIK3CD Kinase Activity

PIK3CD (Human), sequence (O00329 whole entry, looked up): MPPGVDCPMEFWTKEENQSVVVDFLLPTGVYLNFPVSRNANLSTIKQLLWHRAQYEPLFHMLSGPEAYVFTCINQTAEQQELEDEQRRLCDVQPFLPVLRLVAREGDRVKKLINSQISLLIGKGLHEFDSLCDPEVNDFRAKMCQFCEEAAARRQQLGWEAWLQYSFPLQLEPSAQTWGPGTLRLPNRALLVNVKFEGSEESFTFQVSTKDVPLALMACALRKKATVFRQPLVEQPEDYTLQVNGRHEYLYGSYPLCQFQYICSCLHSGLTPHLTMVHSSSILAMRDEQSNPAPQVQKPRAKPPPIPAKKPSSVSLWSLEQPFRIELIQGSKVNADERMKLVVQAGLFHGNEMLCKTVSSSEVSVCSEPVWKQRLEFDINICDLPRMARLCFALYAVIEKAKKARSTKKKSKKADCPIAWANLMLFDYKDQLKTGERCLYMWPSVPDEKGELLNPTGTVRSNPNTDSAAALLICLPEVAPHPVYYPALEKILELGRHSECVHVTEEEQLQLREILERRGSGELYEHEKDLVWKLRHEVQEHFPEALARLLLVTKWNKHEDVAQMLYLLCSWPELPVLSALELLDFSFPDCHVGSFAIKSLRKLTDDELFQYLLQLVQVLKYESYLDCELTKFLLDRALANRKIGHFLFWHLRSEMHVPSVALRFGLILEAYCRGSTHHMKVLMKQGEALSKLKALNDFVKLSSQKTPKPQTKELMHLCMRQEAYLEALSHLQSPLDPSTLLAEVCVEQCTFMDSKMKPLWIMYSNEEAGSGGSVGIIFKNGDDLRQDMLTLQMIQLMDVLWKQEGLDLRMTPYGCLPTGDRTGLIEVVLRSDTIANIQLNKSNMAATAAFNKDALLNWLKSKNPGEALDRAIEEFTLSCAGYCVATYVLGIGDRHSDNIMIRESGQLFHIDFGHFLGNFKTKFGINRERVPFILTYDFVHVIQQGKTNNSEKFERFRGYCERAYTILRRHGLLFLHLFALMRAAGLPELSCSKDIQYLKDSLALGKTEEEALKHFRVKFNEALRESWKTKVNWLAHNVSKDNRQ

SMILES	IC50
CC(Nc1ncnc2[nH]cnc12)c1cc(Cl)c2cn[nH]c2c1-c1cc(F)cc(F)c1 (centres undefined)	< 50 nM
COC(=O)NC1CCN(c2c(C(C)Nc3ncnc4[nH]cnc34)cc(Cl)c3cccnc23)CC1 (centres undefined)	< 50 nM
Cc1cc(C(C)Nc2ncnc3[nH]cnc23)c(-c2cccc(F)c2)c2ncccc12 (centres undefined)	100 to 250 nM
CC(Nc1ncnc2[nH]cnc12)c1cc(Cl)c2ccnnc2c1-c1ccnc(F)c1 (centres undefined)	500 to 1000 nM
CC(=O)N[C@H]1CCN(c2c(C(C)Nc3ncnc4[nH]cnc34)cc(Cl)c3cccnc23)C1 (some centres undefined)	< 50 nM
COC(=O)N[C@H]1CCN(c2c(C(C)Nc3ncnc4[nH]cnc34)cc(Cl)c3cccnc23)C1 (some centres undefined)	50 to 100 nM and < 50 nM
CC(Nc1ncnc2[nH]cnc12)c1cc(Cl)c2ccccc2c1N1CCC(O)CC1 (centres undefined)	< 50 nM
CC(Nc1ncnc2[nH]cnc12)c1nc(C#N)c2ccccc2c1-c1cccc(F)c1 (centres undefined)	50 to 100 nM
CC(Nc1ncnc2[nH]cnc12)c1cc(Cl)c2ccncc2c1N1CC[C@H](F)C1 (some centres undefined)	250 to 500 nM
CCC(Nc1ncnc2[nH]cnc12)c1cc(Cl)c2ccnnc2c1-c1cccc(F)c1 (centres undefined)	< 50 nM
Cc1cc(C(C)Nc2ncnc3[nH]cnc23)c(-c2cccc(F)c2)c2nnccc12 (centres undefined)	< 50 nM and 500 to 1000 nM
CC(Nc1ncnc2[nH]cnc12)c1cc(Cl)c2cccnc2c1N1CCN(C(=O)c2cccc(F)c2)CC1 (centres undefined)	100 to 250 nM
CC(Nc1ncnc2[nH]cnc12)c1cc(C#N)c2cccnc2c1-c1cccc(F)c1 (centres undefined)	50 to 100 nM
CC(Nc1ncnc2[nH]cnc12)c1cc(Cl)c2cccnc2c1N1CCC(NS(C)(=O)=O)CC1 (centres undefined)	100 to 250 nM
CC(Nc1ncnc2[nH]cnc12)c1cc(Cl)c2ccnnc2c1-c1cc(F)cc(F)c1 (centres undefined)	< 50 nM
Cc1cc(C(=O)N2CCN(c3c(C(C)Nc4ncnc5[nH]cnc45)cc(Cl)c4cccnc34)CC2)no1 (centres undefined)	< 50 nM
CC(Nc1ncnc2[nH]cnc12)c1ccc2cccnc2c1-c1cc(F)cc(F)c1 (centres undefined)	500 to 1000 nM
CC(Nc1ncnc2[nH]cnc12)c1cc(Cl)c2cccnc2c1N1CCN(C(=O)c2cccnc2)CC1 (centres undefined)	< 50 nM
CC(Nc1ncnc2[nH]cnc12)c1cc(F)c2cccnc2c1N1CCN(C(=O)c2cnn(C)c2)CC1 (centres undefined)	< 50 nM
CC(Nc1ncnc2[nH]cnc12)c1cc(Cl)c2ccnnc2c1-c1cncc(F)c1 (centres undefined)	50 to 100 nM
CC(Nc1nc(N)nc2[nH]cnc12)c1ccc2ccccc2c1-c1cncc(F)c1 (centres undefined)	< 50 nM

SMILES	IC50
CC(Nc1ncnc2[nH]cnc12)c1cc(Cl)c2cccnc2c1N1CCN(C(=O)c2ccn(C)n2)CC1 (centres undefined)	< 50 nM
CC(Nc1ncnc2[nH]cnc12)c1cc(Cl)c2ccncc2c1-c1cccc(F)c1 (centres undefined)	< 50 nM
CC(Nc1ncnc2[nH]cnc12)c1cc(Cl)c2ccccc2c1-c1cccc(F)c1 (centres undefined)	100 to 250 nM
CC(Nc1ncnc2[nH]cnc12)c1cc(Cl)c2cccnc2c1N1CCC(c2ccccc2)C1 (centres undefined)	250 to 500 nM
CC(Nc1ncnc2[nH]cnc12)c1cc(Cl)c2cccnc2c1N1CCN(C(=O)c2ccccc2F)CC1 (centres undefined)	250 to 500 nM
Cc1nc(C(C)Nc2ncnc3[nH]cnc23)c(-c2cccc(F)c2)c2ccccc12 (centres undefined)	100 to 250 nM
COC1CCN(c2c(C(C)Nc3ncnc4[nH]cnc34)cc(Cl)c3cccnc23)C1 (centres undefined)	< 50 nM and 50 to 100 nM
Fc1cccc(-c2c(CNc3ncnc4[nH]cnc34)cc(Cl)c3ccnnc23)c1	500 to 1000 nM
COc1ccc(-c2c(C(C)Nc3ncnc4[nH]cnc34)cc(Cl)c3ccnnc23)cc1F (centres undefined)	500 to 1000 nM
CC(Nc1ncnc2[nH]cnc12)c1cc(F)c2ccnnc2c1-c1cc(F)cc(F)c1 (centres undefined)	100 to 250 nM
CC(Nc1ncnc2[nH]cnc12)c1cc(F)c2ccnnc2c1-c1cccc(F)c1 (centres undefined)	100 to 250 nM and < 50 nM
CC(Nc1ncnc2[nH]cnc12)c1cc(Cl)c2cccnc2c1N1CCC(C#N)C1 (centres undefined)	100 to 250 nM
CC(Nc1ncnc2[nH]cnc12)c1ccc2cccnc2c1-c1cncc(F)c1 (centres undefined)	500 to 1000 nM
CC(Nc1ncnc2[nH]cnc12)c1cc(Cl)c2cccnc2c1N1CCN(C(=O)c2ccccc2)CC1 (centres undefined)	50 to 100 nM
Cc1noc(C)c1C(=O)N1CCN(c2c(C(C)Nc3ncnc4[nH]cnc34)cc(Cl)c3cccnc23)CC1 (centres undefined)	< 50 nM
CC(Nc1ncnc2[nH]cnc12)c1cc(Cl)c2cccnc2c1N1CCN(Cc2ccncc2)CC1 (centres undefined)	< 50 nM
CC(Nc1ncnc2[nH]cnc12)c1cc(Cl)c2cccnc2c1N1CC[C@H](NS(C)(=O)=O)C1 (some centres undefined)	250 to 500 nM and < 50 nM
Cc1cc(C(C)Nc2ncnc3[nH]cnc23)c(-c2cc(F)cc(F)c2)c2nnccc12 (centres undefined)	< 50 nM
CC(Nc1ncnc2[nH]cnc12)c1ccc2ccccc2c1-c1cccc(F)c1 (centres undefined)	100 to 250 nM
CC(Nc1ncnc2[nH]cnc12)c1cc(Cl)c2cnn(C)c2c1-c1cc(F)cc(F)c1 (centres undefined)	< 50 nM
CC(C)C(=O)N[C@H]1CCN(c2c(C(C)Nc3ncnc4[nH]cnc34)cc(Cl)c3cccnc23)C1 (some centres undefined)	< 50 nM

SMILES	IC50
CC(Nc1ncnc2[nH]cnc12)c1cc(Cl)c2cccnc2c1-c1cccc(F)c1 (centres undefined)	< 50 nM
C[C@H](Nc1ncnc2[nH]cnc12)c1cc(F)c2cccnc2c1-c1cccc(F)c1	< 50 nM
COC[C@H]1CCCN1c1c(C(C)Nc2ncnc3[nH]cnc23)cc(Cl)c2cccnc12 (some centres undefined)	100 to 250 nM
CC(Nc1ncnc2[nH]cnc12)c1cc(Cl)c2ccnnc2c1-c1ccccc1F (centres undefined)	< 50 nM and 50 to 100 nM and 250 to 500 nM
CCc1cc(C(C)Nc2ncnc3[nH]cnc23)c(-c2cccc(F)c2)c2ncccc12 (centres undefined)	50 to 100 nM
CC(Nc1ncnc2[nH]cnc12)c1ccc2ccccc2c1-c1cncc(F)c1 (centres undefined)	< 50 nM
CC(Nc1ncnc2[nH]cnc12)c1cc(Cl)c2cccnc2c1N1CCN(C(=O)c2cnccn2)CC1 (centres undefined)	< 50 nM
C[C@@H](Nc1ncnc2[nH]cnc12)c1cc(F)c2cccnc2c1-c1cccc(F)c1	< 50 nM
CC(Nc1ncnc2[nH]cnc12)c1ccc2cccnc2c1-c1ccccc1F (centres undefined)	500 to 1000 nM
CC(Nc1ncnc2[nH]cnc12)c1cc(F)c2cccnc2c1N1CC[C@@H](O)C1 (some centres undefined)	100 to 250 nM
CC(Nc1ncnc2[nH]cnc12)c1cc(Cl)c2cccnc2c1-c1ccccc1F (centres undefined)	100 to 250 nM and < 50 nM
CC(Nc1nc(N)nc2[nH]cnc12)c1cc(F)c2ccnnc2c1-c1cccc(F)c1 (centres undefined)	< 50 nM
CC(Nc1ncnc2[nH]cnc12)c1ccc2cccnc2c1-c1cccc(F)c1 (centres undefined)	250 to 500 nM
CCC(=O)N[C@H]1CCN(c2c(C(C)Nc3ncnc4[nH]cnc34)cc(Cl)c3cccnc23)C1 (some centres undefined)	< 50 nM
CC(Nc1ncnc2[nH]cnc12)c1cc(Cl)c2cccnc2c1N1CCN(C(=O)c2ccc(F)cc2)CC1 (centres undefined)	100 to 250 nM
CC(Nc1nc(N)nc2[nH]cnc12)c1ccc2ccccc2c1-c1cccc(F)c1 (centres undefined)	500 to 1000 nM
CC(Nc1ncnc2[nH]cnc12)c1cc(Cl)c2conc2c1-c1cccc(F)c1 (centres undefined)	< 50 nM
CC(Nc1ncnc2[nH]cnc12)c1cc(Cl)c2cn[nH]c2c1-c1cccc(F)c1 (centres undefined)	< 50 nM
CC(Nc1ncnc2[nH]cnc12)c1cc(Cl)c2cccnc2c1N1CCN(C(=O)c2ccncc2)CC1 (centres undefined)	< 50 nM
CC(Nc1ncnc2[nH]cnc12)c1cc(Cl)c2cccnc2c1N1CCN(C(=O)c2ccccn2)CC1 (centres undefined)	< 50 nM

Now from value to molecule:

IC50	SMILES
< 50 nM	CC(Nc1ncnc2[nH]cnc12)c1cc(Cl)c2cccnc2c1N1CC[C@@H](O)C1 (some centres undefined)
100 to 250 nM	CC(Nc1ncnc2[nH]cnc12)c1cc(Cl)c2cccnc2c1N1CCCC(CO)C1 (centres undefined)
< 50 nM	CC(Nc1ncnc2[nH]cnc12)c1cc(Cl)c2cccnc2c1N1CCC(O)CC1 (centres undefined)
50 to 100 nM	CC(Nc1ncnc2[nH]cnc12)c1cc(Cl)c2cccnc2c1N1CCN(C2CCCCC2)CC1 (centres undefined)
< 50 nM	COCCN1CCN(c2c(C(C)Nc3ncnc4[nH]cnc34)cc(Cl)c3cccnc23)CC1 (centres undefined)
50 to 100 nM	COC1CCN(c2c(C(C)Nc3ncnc4[nH]cnc34)cc(Cl)c3cccnc23)CC1 (centres undefined)
< 50 nM	CC(=O)NC1CCN(c2c(C(C)Nc3ncnc4[nH]cnc34)cc(Cl)c3cccnc23)CC1 (centres undefined)
< 50 nM	CC(Nc1ncnc2[nH]cnc12)c1cc(Cl)c2cccnc2c1N1CCN(CC(=O)N(C)C)CC1 (centres undefined)
100 to 250 nM	CC(Nc1ncnc2[nH]cnc12)c1cc(Cl)c2cccnc2c1N1CCC(CCO)CC1 (centres undefined)
< 50 nM	CC(Nc1ncnc2[nH]cnc12)c1cc(Cl)c2cccnc2c1N1CCN(C(=O)C2CC2)CC1 (centres undefined)
< 50 nM	CC(Nc1ncnc2[nH]cnc12)c1cc(F)c2cccnc2c1N1CCN(C2CCC2)CC1 (centres undefined)
500 to 1000 nM	CC(Nc1ncnc2[nH]cnc12)c1cc(Cl)c2cccnc2c1N1CCC(F)(F)CC1 (centres undefined)
< 50 nM	CC(Nc1ncnc2[nH]cnc12)c1cc(Cl)c2cccnc2c1N1CCN(C2CC2)CC1 (centres undefined)
< 50 nM	CC(Nc1ncnc2[nH]cnc12)c1cc(Cl)c2cccnc2c1N1CCN(C(=O)N(C)C)CC1 (centres undefined)
< 50 nM	CC(Nc1ncnc2[nH]cnc12)c1cc(Cl)c2cccnc2c1N1CCN(C2CCC2)CC1 (centres undefined)
< 50 nM	CC(Nc1ncnc2[nH]cnc12)c1cc(Cl)c2cccnc2c1N1CCC[C@H](O)C1 (some centres undefined)
250 to 500 nM	CC(Nc1ncnc2[nH]cnc12)c1cc(Cl)c2cccnc2c1N1CCCC(F)C1 (centres undefined)
< 50 nM	COCC(=O)N1CCN(c2c(C(C)Nc3ncnc4[nH]cnc34)cc(Cl)c3cccnc23)CC1 (centres undefined)
100 to 250 nM	CC(Nc1ncnc2[nH]cnc12)c1cc(Cl)c2cccnc2c1N1CCC(F)CC1 (centres undefined)
250 to 500 nM and 100 to 250 nM	COC1CCCN(c2c(C(C)Nc3ncnc4[nH]cnc34)cc(Cl)c3cccnc23)C1 (centres undefined)
100 to 250 nM	CC(Nc1ncnc2[nH]cnc12)c1cc(Cl)c2cccnc2c1N1CCC(CO)CC1 (centres undefined)
< 50 nM	CC(=O)N1CCC(C(=O)N2CCN(c3c(C(C)Nc4ncnc5[nH]cnc45)cc(Cl)c4cccnc34)CC2)CC1 (centres undefined)
< 50 nM	CC(Nc1ncnc2[nH]cnc12)c1cc(Cl)c2cccnc2c1N1CCN(CCO)CC1 (centres undefined)
50 to 100 nM	CC(Nc1ncnc2[nH]cnc12)c1cc(Cl)c2cccnc2c1N1CCC(N2CCCCC2)CC1 (centres undefined)
100 to 250 nM	CC(Nc1ncnc2[nH]cnc12)c1cc(Cl)c2cccnc2c1N1CCC(C#N)CC1 (centres undefined)
< 50 nM	CC(Nc1ncnc2[nH]cnc12)c1cc(Cl)c2cccnc2c1N1CCN(C(=O)C2CCC2)CC1 (centres undefined)
< 50 nM	COC(=O)N1CCN(c2c(C(C)Nc3ncnc4[nH]cnc34)cc(Cl)c3cccnc23)CC1 (centres undefined)
